Test results taken from PMC6499206, “Quantification of Volatile Metabolites Derived From Garlic (Allium sativum) in Human Urine” (Frontiers in Nutrition, 2019).

Test: Quantification of garlic-derived metabolites in human urine after ingestion of 3 g raw garlic (SIDA, SAFE, HRGC-MS / HRGC-GC-MS)
Format: in vivo
Details: 3 g raw garlic
Excerpt: Human urine samples were obtained from 18 volunteers (age 22–38 years, mean 27 years; 11 females, 7 males); thereby, one volunteer conducted the whole experimental series twice. At the time of examination, volunteers reported no known illness that might have potentially influenced the metabolism or the excretion of urine. The test persons were instructed to avoid foods that were rich in sulfur-containing substances at the testing day as well as 2 days preceding the testing day, namely garlic, onion, wild garlic, chives, cabbage, and leek, and were only allowed to consume the garlic sample provided in the course of the experiments. Additionally, subjects were asked to keep records of the food (including food supplements) and beverages they consumed during these 3 testing days. Generally, the overall panelists' requirements were in accordance with our previous studies ([5], [16]).
On the sampling day, the outer garlic cloves of a whole garlic bulb were peeled and cut into ~3 mm cubes by using a garlic cutter (Genius GmbH, Limburg/Lahn, Germany). Subsequently these cubes were thoroughly mixed and aliquoted into 3 g portions. Three to four test persons conducted the experiment at the same day. Each test person was asked to ingest a garlic portion of 3 g. In total, eight consecutive urine samples were provided by each test person, comprising one whole urine set. The samples were collected in sterile brown glass bottles, with sampling times as follows: one sample was provided directly prior to garlic consumption. The series of the second to eighth sample was then obtained at about 0.5, 1, 2, 4, 6, 8, and 24 h after garlic consumption, respectively. Between the first urine sample (prior to garlic consumption) and the seventh urine sample (8 h after garlic consumption) test persons only spent urine at the specific time points mentioned before. Another sample was provided at the next morning (24 h after garlic consumption). Between the samples provided 8 and 24 h after garlic consumption no urine was collected. All samples were immediately placed into a −80°C freezer and were kept frozen until further analysis.
The samples of each set were termed according to their sampling time. The following list provides the time intervals that are related to the respective sample name: • - pre: before garlic consumption • - 0.5 h post: 0.4–0.8 h after garlic consumption • - 1 h post: 0.9–1.3 h after garlic consumption • - 2 h post: 1.8 h−2.2 h after garlic consumption • - 4 h post: 3.8–4.4 h after garlic consumption • - 6 h post: 5.8–6.4 h after garlic consumption • - 8 h post: 7.8–8.4 h after garlic consumption • - 24 h post: 23.8–25.6 h after garlic consumption
A creatinine kit (Labor+Technik Eberhard Lehmann GmbH, Berlin, Germany) was used to determine the creatinine content in each urine sample. The determination principle of this kit is based on the reaction of creatinine with picric acid under basic conditions (Jaffé reaction). The formed complex was detected photometrically at a wavelength of 492 nm.
For quantification purposes, the deuterated standards ^2H3-AMS, ^2H3-AMSO, and ^2H3-AMSO2 were added to the sample and stirred for 10 min. Subsequently, DCM was added in a ratio of 1:2 (DCM/human urine; v/v) and this solution was stirred for further 30 min at room temperature. To isolate the volatile fraction from the urine samples we then applied SAFE-distillation ([17]), thereby distilling the respective samples at 50°C. After completion of the distillation process, 10 mL of DCM were applied in each case to rinse the SAFE apparatus and to ensure complete transition of the volatile compounds. This process was repeated with another 10 mL of DCM. After thawing, the obtained aqueous distillate phase was extracted three times with 25 mL DCM. The organic phases were combined, dried over anhydrous Na2SO4 and concentrated to a total volume of 100 μL by means of Vigreux distillation and subsequent micro-distillation at 50°C. […]

Compound: C=CCS(C)(=O)=O [AMSO2, allyl methyl sulfone]
- metabolite concentration in urine (U VII, 1 h post (1.08 h)): 125.9 µg/kg
- metabolite concentration in urine, creatinine-normalized (U VII, 1 h post (1.08 h)): 78.0 µg/mmol creatinine
- metabolite concentration in urine (U VII, 2 h post (2.00 h)): 139.9 µg/kg
- metabolite concentration in urine, creatinine-normalized (U VII, 2 h post (2.00 h)): 143.4 µg/mmol creatinine
- metabolite concentration in urine (U VII, 4 h post (4.00 h)): 170.5 µg/kg
- metabolite concentration in urine, creatinine-normalized (U VII, 4 h post (4.00 h)): 105.6 µg/mmol creatinine
- metabolite concentration in urine (U VII, 6 h post (6.00 h)): 203.6 µg/kg
- metabolite concentration in urine, creatinine-normalized (U VII, 6 h post (6.00 h)): 65.5 µg/mmol creatinine
- metabolite concentration in urine (U VII, 8 h post (8.00 h)): 147.2 µg/kg
- metabolite concentration in urine, creatinine-normalized (U VII, 8 h post (8.00 h)): 75.5 µg/mmol creatinine
- metabolite concentration in urine (U VII, 24 h post (24.00 h)): 15.7 µg/kg
- metabolite concentration in urine, creatinine-normalized (U VII, 24 h post (24.00 h)): 4.2 µg/mmol creatinine
- metabolite concentration in urine (U VII, pre (-0.25 h)): 7.0 µg/kg
- metabolite concentration in urine, creatinine-normalized (U VII, pre (-0.25 h)): 2.0 µg/mmol creatinine
- metabolite concentration in urine (U VIII, 0.5 h post (0.52 h)): 112.9 µg/kg
- metabolite concentration in urine, creatinine-normalized (U VIII, 0.5 h post (0.52 h)): 143.6 µg/mmol creatinine
- metabolite concentration in urine (U VIII, 1 h post (1.08 h)): 256.0 µg/kg
- metabolite concentration in urine, creatinine-normalized (U VIII, 1 h post (1.08 h)): 154.0 µg/mmol creatinine
- metabolite concentration in urine (U VIII, 2 h post (2.08 h)): 301.1 µg/kg
- metabolite concentration in urine, creatinine-normalized (U VIII, 2 h post (2.08 h)): 284.7 µg/mmol creatinine
- metabolite concentration in urine (U VIII, 4 h post (4.07 h)): 322.0 µg/kg
- metabolite concentration in urine, creatinine-normalized (U VIII, 4 h post (4.07 h)): 152.2 µg/mmol creatinine
- metabolite concentration in urine (U VIII, 6 h post (6.08 h)): 348.3 µg/kg
- metabolite concentration in urine, creatinine-normalized (U VIII, 6 h post (6.08 h)): 92.2 µg/mmol creatinine
- metabolite concentration in urine (U VIII, 8 h post (7.90 h)): 255.0 µg/kg
- metabolite concentration in urine, creatinine-normalized (U VIII, 8 h post (7.90 h)): 92.7 µg/mmol creatinine
- metabolite concentration in urine (U VIII, 24 h post (23.83 h)): 48.3 µg/kg
- metabolite concentration in urine, creatinine-normalized (U VIII, 24 h post (23.83 h)): 18.1 µg/mmol creatinine
- metabolite concentration in urine (U VIII, pre (-0.33 h)): 97.6 µg/kg
- metabolite concentration in urine, creatinine-normalized (U VIII, pre (-0.33 h)): 21.82 µg/mmol creatinine
- metabolite concentration in urine (U X, 0.5 h post (0.53 h)): 15.5 µg/kg
- metabolite concentration in urine, creatinine-normalized (U X, 0.5 h post (0.53 h)): 8.0 µg/mmol creatinine
- metabolite concentration in urine (U X, 1 h post (1.03 h)): 27.7 µg/kg
- metabolite concentration in urine, creatinine-normalized (U X, 1 h post (1.03 h)): 35.2 µg/mmol creatinine
- metabolite concentration in urine (U X, 2 h post (2.03 h)): 48.6 µg/kg
- metabolite concentration in urine, creatinine-normalized (U X, 2 h post (2.03 h)): 72.3 µg/mmol creatinine
- metabolite concentration in urine (U X, 4 h post (3.85 h)): 79.1 µg/kg
- metabolite concentration in urine, creatinine-normalized (U X, 4 h post (3.85 h)): 60.1 µg/mmol creatinine
- metabolite concentration in urine (U X, 6 h post (5.80 h)): 89.3 µg/kg
- metabolite concentration in urine, creatinine-normalized (U X, 6 h post (5.80 h)): 37.7 µg/mmol creatinine
- metabolite concentration in urine (U X, 8 h post (7.75 h)): 85.2 µg/kg
- metabolite concentration in urine, creatinine-normalized (U X, 8 h post (7.75 h)): 36.5 µg/mmol creatinine
- metabolite concentration in urine (U X, 24 h post (23.97 h)): 53.0 µg/kg
- metabolite concentration in urine, creatinine-normalized (U X, 24 h post (23.97 h)): 4.9 µg/mmol creatinine
- metabolite concentration in urine (U X, pre (-0.07 h)): < LOD^3
- metabolite concentration in urine, creatinine-normalized (U X, pre (-0.07 h)): < LOD^3
- metabolite concentration in urine (U XI, 0.5 h post (0.50 h)): 27.5 µg/kg
- metabolite concentration in urine, creatinine-normalized (U XI, 0.5 h post (0.50 h)): 33.4 µg/mmol creatinine
- metabolite concentration in urine (U XI, 1 h post (1.02 h)): 65.7 µg/kg
- metabolite concentration in urine, creatinine-normalized (U XI, 1 h post (1.02 h)): 82.6 µg/mmol creatinine
- metabolite concentration in urine (U XI, 2 h post (2.00 h)): 93.5 µg/kg
- metabolite concentration in urine, creatinine-normalized (U XI, 2 h post (2.00 h)): 122.1 µg/mmol creatinine
- metabolite concentration in urine (U XI, pre (-0.08 h)): 9.0 µg/kg
- metabolite concentration in urine, creatinine-normalized (U XI, pre (-0.08 h)): 2.6 µg/mmol creatinine
- metabolite concentration in urine (U XII, 0.5 h post (0.48 h)): 17.3 µg/kg
- metabolite concentration in urine, creatinine-normalized (U XII, 0.5 h post (0.48 h)): 2.3 µg/mmol creatinine
- metabolite concentration in urine (U XII, 1 h post (1.03 h)): 33.1 µg/kg
- metabolite concentration in urine, creatinine-normalized (U XII, 1 h post (1.03 h)): 33.6 µg/mmol creatinine
